Laboratory results reported in ChEMBL document CHEMBL5376014, “Role of heterocycles in inhibition of VEGFR-2 - a recent update (2019-2022)” (RSC Med Chem, 2024).
One block for each compound: values may come before it.

Tests used:
[1] = target: T1, Vascular endothelial growth factor receptor 2 (Homo sapiens, UniProt P35968); test: Inhibition of VEGFR-2 (unknown origin)
[2] = target: T1, Vascular endothelial growth factor receptor 2; test: Inhibition of human recombinant VEGFR-2 expressed in Sf21 insect cells incubated for 60 mins by ELISA
MDA-MB-231 [3] = test: Antiproliferative activity against human MDA-MB-231 cells assessed as cell growth inhibition measured after 48 hrs by MTT assay; format: functional, cell-based; conditions: MDA-MB-231, 48 h
[4] = target: T1, Vascular endothelial growth factor receptor 2; test: Inhibition of human recombinant VEGFR-2 kinase activity using poly(Glu-Tyr) at 4:1 ratio as substrate incubated for 60 mins by ELISA
[5] = target: T1, Vascular endothelial growth factor receptor 2; test: Inhibition of human recombinant VEGFR-2 by ELISA method
HepG2 [6] = test: Anticancer activity against human HepG2 cells assessed as inhibition of cell growth incubated for 24 hrs by MTT assay; format: functional, cell-based; conditions: HepG2, 24 h
MCF7 [7] = test: Anticancer activity against human MCF7 cells assessed as inhibition of cell growth incubated for 24 hrs by MTT assay; format: functional, cell-based; conditions: MCF7, 24 h
[8] = Inhibition of tyrosine kinase in human PANC-1 cells; format: cell-based
[9] = target: T1, Vascular endothelial growth factor receptor 2; test: Inhibition of VEGFR-2 (unknown origin) incubated for 45 mins by ELISA
[10] = target: T1, Vascular endothelial growth factor receptor 2; test: Inhibition of human recombinant VEGFR-2 kinase activity using poly(Glu-Tyr) at 4:1 ratio as substrate incubated for 60 mins by ELISA method
HeLa = test: Cytotoxicity against human HeLa cells assessed as reduction in cell viability incubated for 24 hrs by MTT assay; format: functional, cell-based
A549 = test: Cytotoxicity against human A549 cells assessed as reduction in cell viability incubated for 72 hrs by MTT assay; format: functional, cell-based; conditions: A549, 72 h
MDA-MB-231 [11] = test: Cytotoxicity against human MDA-MB-231 cells assessed as reduction in cell viability incubated for 72 hrs by MTT assay; format: functional, cell-based; conditions: MDA-MB-231, 72 h
[12] = target: T1, Vascular endothelial growth factor receptor 2; test: Inhibition of VEGFR-2 (unknown origin) kinase activity using poly(Glu-Tyr) at 4:1 ratio as substrate in presence of ATP incubated for 5 mins by ELISA method
[13] = target: T1, Vascular endothelial growth factor receptor 2; test: Inhibition of human recombinant VEGFR-2 kinase activity using poly(Glu-Tyr) at 4:1 ratio as substrate incubated for […] by ELISA method
[14] = target: T1, Vascular endothelial growth factor receptor 2; test: Inhibition of VEGFR-2 (unknown origin) incubated for […] by ELISA method
HepG2 [15] = test: Antiproliferative activity against human HepG2 cells assessed as reduction in cell viability by MTT assay; format: functional, cell-based
PC-3 = test: Antiproliferative activity against human PC-3 cells assessed as inhibition of cell growth incubated for 48 hrs by MTT assay; format: functional, cell-based; conditions: PC-3, 48 h
MCF7 [16] = test: Antiproliferative activity against human MCF7 cells assessed as reduction in cell viability incubated for 24 hrs by MTT assay; format: functional, cell-based; conditions: MCF7, 24 h
[17] = target: T1, Vascular endothelial growth factor receptor 2; test: Inhibition of VEGFR-2 (978 to 1408 residues) (unknown origin) using pEY (4:1) as substrate for 20 min in the presence of ATP by ELISA method
[18] = target: T1, Vascular endothelial growth factor receptor 2; test: Inhibition of human recombinant VEGFR-2 in the presence of ATP
HepG2 [19] = test: Cytotoxicity against human HepG2 cells assessed as cell growth inhibition; format: functional, cell-based
MCF7 [20] = test: Cytotoxicity against human MCF7 cells assessed as cell growth inhibition; format: functional, cell-based
[21] = target: T1, Vascular endothelial growth factor receptor 2; test: Inhibition of human VEGFR-2 kinase activity using poly(Glu-Tyr) at 4:1 ratio as substrate preincubated for 30 mins followed by compound addition incubated for 1 hrs by ELISA
[22] = target: T1, Vascular endothelial growth factor receptor 2; test: Inhibition of human recombinant VEGFR-2
[23] = target: T1, Vascular endothelial growth factor receptor 2; test: Inhibition of recombinant VEGFR-2 (unknown origin)
[24] = target: T1, Vascular endothelial growth factor receptor 2; test: Inhibition of human VEGFR-2
HepG2 [25] = test: Anticancer activity against human HepG2 cells assessed as reduction in cell viability measured after 72 hrs by MTT assay; format: functional, cell-based; conditions: HepG2, 72 h
[26] = target: T1, Vascular endothelial growth factor receptor 2; test: Inhibition of VEGFR-2 (unknown origin) kinase activity using poly(Glu-Tyr) at 4:1 ratio as substrate in presence of ATP incubated for 1 hr by ELISA
[27] = target: T1, Vascular endothelial growth factor receptor 2; test: Inhibition of VEGFR-2 (unknown origin)
[28] = target: T1, Vascular endothelial growth factor receptor 2; test: Inhibition of recombinant VEGFR-2 (unknown origin); remark: listed apart in the source

T1 sequence (P35968 whole entry): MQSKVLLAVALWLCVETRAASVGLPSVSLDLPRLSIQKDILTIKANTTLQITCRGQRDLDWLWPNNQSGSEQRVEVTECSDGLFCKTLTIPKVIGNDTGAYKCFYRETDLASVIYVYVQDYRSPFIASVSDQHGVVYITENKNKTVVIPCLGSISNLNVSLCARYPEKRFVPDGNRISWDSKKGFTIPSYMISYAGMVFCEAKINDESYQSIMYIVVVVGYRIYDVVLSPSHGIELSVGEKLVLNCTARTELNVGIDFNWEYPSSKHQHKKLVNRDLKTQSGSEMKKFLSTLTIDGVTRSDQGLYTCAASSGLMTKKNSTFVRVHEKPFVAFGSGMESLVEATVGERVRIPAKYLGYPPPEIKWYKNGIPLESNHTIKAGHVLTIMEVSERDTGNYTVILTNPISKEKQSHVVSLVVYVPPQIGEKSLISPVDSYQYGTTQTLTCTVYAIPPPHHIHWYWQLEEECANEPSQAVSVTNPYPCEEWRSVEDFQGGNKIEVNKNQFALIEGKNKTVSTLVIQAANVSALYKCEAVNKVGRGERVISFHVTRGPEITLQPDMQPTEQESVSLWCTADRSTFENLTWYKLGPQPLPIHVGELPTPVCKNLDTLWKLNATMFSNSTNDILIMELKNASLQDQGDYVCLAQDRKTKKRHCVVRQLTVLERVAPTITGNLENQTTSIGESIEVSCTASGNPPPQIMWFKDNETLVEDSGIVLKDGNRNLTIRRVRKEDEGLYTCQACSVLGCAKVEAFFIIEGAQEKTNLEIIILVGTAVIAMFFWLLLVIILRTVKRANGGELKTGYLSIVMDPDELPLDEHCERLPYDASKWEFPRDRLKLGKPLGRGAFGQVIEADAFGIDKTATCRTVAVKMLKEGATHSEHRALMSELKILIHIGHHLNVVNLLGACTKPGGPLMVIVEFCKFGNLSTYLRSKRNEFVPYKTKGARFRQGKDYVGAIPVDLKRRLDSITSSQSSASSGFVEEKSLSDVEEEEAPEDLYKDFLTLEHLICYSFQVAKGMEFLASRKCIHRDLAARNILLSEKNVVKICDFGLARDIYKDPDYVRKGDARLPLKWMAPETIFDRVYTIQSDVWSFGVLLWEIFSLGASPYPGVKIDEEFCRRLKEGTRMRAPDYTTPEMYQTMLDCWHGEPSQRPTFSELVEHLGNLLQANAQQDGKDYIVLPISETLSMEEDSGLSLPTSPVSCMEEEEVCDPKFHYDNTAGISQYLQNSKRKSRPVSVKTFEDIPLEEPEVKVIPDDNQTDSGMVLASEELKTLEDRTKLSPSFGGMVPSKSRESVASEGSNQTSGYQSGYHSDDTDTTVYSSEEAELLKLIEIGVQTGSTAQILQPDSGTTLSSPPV

SMILES: COC(C)Oc1cc2ncnc(Oc3ccc(NC(=O)C4(C(=O)Nc5ccc(F)cc5)CC4)cc3)c2c2c1OCCO2 (stereo not given)
- IC50 [1]: 8.8 nM

SMILES: COc1cc(/C=C2\CCCn3c2nc2c(cnn2C)c3=O)cc(OC)c1OC
- IC50 [2]: 13.2 nM
- IC50 (MDA-MB-231 [3]): 14.2 nM

SMILES: Cc1ccc(NC(=O)c2ccc(NC(=O)CN3C(=O)S/C(=C/c4ccccc4)C3=O)cc2)cc1
- IC50 [4]: 250 nM

SMILES: COc1cc2ncnc(Oc3ccc(NC(=O)C4(C(=O)Nc5ccc(F)cc5)CC4)cc3F)c2c2c1OCCO2
- IC50 [1]: 3.5 nM

SMILES: Cc1ccc(C)c(NC(=O)CSc2nc3ccccc3c(=O)n2-c2ccc(S(N)(=O)=O)cc2)c1
- IC50 [9]: 480 nM

SMILES: CCOC(=O)CSc1nc2ccc(C)cc2c(=O)n1-c1ccc(F)cc1
- IC50 (HeLa): 1260 nM
- IC50 (A549): 570 nM
- IC50 (MDA-MB-231 [11]): 1190 nM

SMILES: Cc1nc2ccccc2n(CC(=O)Nc2ccc(C(=O)NNC(=O)c3ccccc3O)cc2)c1=O
- IC50 [12]: 1190 nM

SMILES: COc1cc(/C=C/C(=O)c2ccc(N3CCNCC3)cc2)ccc1F
- IC50 [13]: 570 nM

SMILES: COC(C)Oc1cc2ncnc(Oc3ccc(NC(=O)C4(C(=O)Nc5ccc(F)cc5)CC4)cc3F)c2c2c1OCCO2 (stereo not given)
- IC50 [1]: 3.6 nM

SMILES: O=[N+]([O-])c1cccc(-c2nn(-c3ccccc3)cc2C2CC(C3CCCO3)=NN2c2ccccc2)c1 (stereo not given)
- IC50 [17]: 910 nM

SMILES: O=C(/C=C/c1cccc(F)c1)c1ccc(N2CCNCC2)cc1
- IC50 [13]: 800 nM

SMILES: Cc1nc2ccccc2n(CC(=O)Nc2ccc(C(=O)NC(C)(C)C)cc2)c1=O
- IC50 (HepG2 [19]): 4500 nM
- IC50 (MCF7 [20]): 7700 nM

SMILES: Cc1ccc(S(=O)(=O)Nc2ccc(-c3cc(-c4cccc(F)c4)c(C#N)c(N)n3)cc2)cc1
- IC50 [21]: 3620 nM

SMILES: COc1cccc(CNC(=O)CSc2nc3ccccc3c(=O)n2-c2ccc(S(N)(=O)=O)cc2)c1OC
- IC50 [9]: 240 nM

SMILES: COc1ccc(C2=Nn3c(N/N=C4\C(=O)Nc5ccc(F)cc54)nnc3SC2)cc1
- IC50 [23]: 435 nM

SMILES: CC1=NN(c2ccc([N+](=O)[O-])cc2[N+](=O)[O-])C(=O)/C1=C\c1cn(-c2ccccc2)nc1-c1cccc([N+](=O)[O-])c1
- IC50 [17]: 820 nM

SMILES: N#Cc1c(-c2ccc(Cl)cc2)cc(-c2ccc3ccccc3c2)nc1NN
- IC50 [26]: 0.25 nM

SMILES: CCc1ccc(NC(=O)c2ccc(NC(=O)CN3C(=O)S/C(=C/c4ccccc4)C3=O)cc2)cc1
- IC50 [4]: 220 nM

SMILES: N#Cc1c(-c2ccc([N+](=O)[O-])cc2)cc(-c2ccc3ccccc3c2)nc1NN
- IC50 [26]: 0.34 nM

SMILES: O=C(CSc1nc2ccc([N+](=O)[O-])cc2c(=O)n1-c1ccccc1)NNC(=O)c1ccccc1
- IC50 [14]: 4800 nM

SMILES: COc1cc(-c2cc(-c3ccc4ccccc4c3)nc(NN)c2C#N)ccc1O
- IC50 [26]: 0.19 nM

SMILES: O=C(CCSc1nc2ccccc2o1)Nc1ccc(S(=O)(=O)NC(=O)NC2CCCCC2)cc1
- IC50 [28]: 80 nM

SMILES: CC(=O)N1N=C(C2CCCO2)CC1c1cn(-c2ccccc2)nc1-c1cccc([N+](=O)[O-])c1 (stereo not given)
- IC50 [17]: 220 nM

The remaining lines, values ahead:

- IC50 [5]: 3200 nM
- IC50 (HepG2 [6]): 3300 nM
- IC50 (MCF7 [7]): 4400 nM
SMILES: COc1ccc(NC(=O)c2ccc(NC(=O)CSc3nnc4c5nncn5c5ccccc5n34)cc2)cc1

- IC50 [8]: 9.4 nM
SMILES: O=C(NC1=NN2C(=O)/C(=C\c3ccco3)N=C2S1)c1cccs1

- IC50 [8]: 8.2 nM
SMILES: N=c1cc(N)nc2sc(NC(=O)c3cccs3)nn12

- IC50 [10]: 199 nM
SMILES: COc1cc(C2NC(SCC(=O)Nc3ccc(C(C)=O)cc3)=NC(=O)C2C#N)cc(OC)c1OC (stereo not given)

- IC50 [12]: 1090 nM
SMILES: Cc1nc2ccccc2n(CC(=O)Nc2ccc(C(=O)NCc3ccccc3)cc2)c1=O

- IC50 [14]: 4600 nM
- IC50 (HepG2 [15]): 17200 nM
- IC50 (PC-3): 26100 nM
- IC50 (MCF7 [16]): 30800 nM
SMILES: CCn1c(SCC(=O)NNC(=O)c2ccccc2)nc2ccc([N+](=O)[O-])cc2c1=O

- IC50 [18]: 64 nM
SMILES: NC(=O)CCn1cc(-c2ccc3ncnc(Nc4ccc(F)c(O)c4)c3c2)nn1

- IC50 [18]: 12 nM
SMILES: NC(=O)CCn1cc(-c2ccc3ncnc(Nc4cc(O)ccc4F)c3c2)nn1

- IC50 [10]: 386 nM
SMILES: CC(=O)c1ccc(NC(=O)CSC2=NC(=O)C(C#N)C(c3ccccc3)N2)cc1 (stereo not given)

- IC50 [4]: 280 nM
SMILES: O=C(CN1C(=O)S/C(=C/c2ccccc2)C1=O)Nc1ccc(C(=O)NCc2ccccc2)cc1

- IC50 [5]: 3100 nM
SMILES: O=C(CSc1nnc2c3nncn3c3ccccc3n12)Nc1ccc(C(=O)Nc2cncs2)cc1

- IC50 [22]: 7.6 nM
SMILES: N#C/C(=C\c1cccs1)c1nnc(NC(=O)c2ccco2)s1

- IC50 [24]: 210 nM
- IC50 (HepG2 [25]): 220 nM
SMILES: Fc1ccc(Nc2nnc3c4c(cccc24)NC(=S)N3Cc2ccccc2)cc1

- IC50 [24]: 30 nM
SMILES: CCOc1ccc(Nc2nnc3c4c(cccc24)NC(=S)N3Cc2ccccc2)cc1

- IC50 [27]: 360 nM
SMILES: C/C(=N\NC(=O)c1ccc(Nc2ncnc3sc4c(c23)CCCC4)cc1)c1ccccc1

- IC50 [22]: 7.4 nM
SMILES: N#CCc1nnc(NC(=O)c2ccco2)s1

- IC50 [27]: 230 nM
SMILES: O=C(N/N=C/c1ccc(Cl)cc1)c1ccc(Nc2ncnc3sc4c(c23)CCCC4)cc1
